From patent US6737383B1, “Herbicidal oxadiazolidines” (priority 1999, dated 2004)

What was measured:
winter wheat [1] = experiment: Test E winter wheat; assay type: in vivo, Triticum aestivum; settings: Preemergence
green foxtail = experiment: Test E green foxtail; assay type: in vivo, Setaria viridis; settings: Preemergence
Italian ryegrass = experiment: Test E Italian ryegrass; assay type: in vivo, Lolium multiflorum; settings: Preemergence
winter barley = experiment: Test E winter barley; assay type: in vivo, Hordeum vulgare; settings: Preemergence
blackgrass = experiment: Test E blackgrass; assay type: in vivo, Alopecurus myosuroides; settings: Preemergence
wild oat = experiment: Test E wild oat; assay type: in vivo, Avena fatua; settings: Preemergence
bamyardgrass = experiment: Test B flood test barnyardgrass; assay type: in vivo, Echinochloa crus-galli
Procedure, shortened: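 Flood test on plants grown to the 2-leaf stage; treated plants kept in greenhouse twelve to sixteen days, then visually rated against controls on a 0 (no effect) to 10 (complete control) scale.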

sugar beet = experiment: Test B pre/postemergence sugar beet; assay type: in vivo, Beta vulgaris
Procedure, shortened: (§1)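 Herbicidal effect was estimated by eye on a ten-point control scale after plants spent twelve to sixteen days in a greenhouse following soil or foliar treatment. Foliar sprays targeted plants at one to four leaves; all doses were formulated in a non-phytotoxic solvent with surfactant.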

cocklebur = experiment: Test B pre/postemergence cocklebur; assay type: in vivo, Xanthium strumarium
Procedure, shortened: as §1

winter wheat [2] = experiment: Test E winter wheat; assay type: in vivo, Triticum aestivum; settings: Postemergence
Method: […] All plant species were grown using normal greenhouse practices. Crop and weed species include annual bluegrass (Poa annua), blackgrass (Alopecurus myosuroides), black nightshade (Solanum nigra), chickweed (Stellaria media), common poppy (Papaver rhoeas), deadnettle (Lamium amplexicaule), downy brome (Bromus tectorum), field violet (Viola arvensis), galium (Galium aparine), green foxtail (Setaria viridis), Italian ryegrass (Lolium multiflorum), jointed goatgrass (Aegilops cylindrica), kochia (Kochia scoparia), lambsquarters (Chenopodium album), littleseed canarygrass (Phalaris minor), rape (Brassica napus), redroot pigweed (Amaranthus retroflexus), Russian thistle (Salsola kali), scentless chamomile (Matricaria inodora), spring barley (Hordeum vulgare), sugar beet (Beta vulgaris), sunflower (Helianthus annuus), ivyleaf speedwell (Veronica hederaefolia), spring wheat (Triticum aestivum), winter wheat (Triticum aestivum), wild buckwheat (Polygonum convolvulus), wild mustard (Sinapis arvensis), wild oat (Avena fatua), windgrass (Apera spica-venti) and winter barley (Hordeum vulgare).
Treated plants and untreated controls were maintained in a greenhouse for approximately 21 to 28 days, after which all treated plants were compared to untreated controls and visually evaluated. […] A dash response (-) means no test result.

pigweed = experiment: Test B pre/postemergence pigweed; assay type: in vivo, Amaranthus retroflexus
Procedure, shortened: as §1

[3] = Rate 62 g/ha, 0 to 100 scale, 0 no effect, 100 complete control
[4] = Rate 125 g/ha, 0 to 100 scale (0 no effect, 100 complete control)
[5] = Postemergence, Rate 125 g/ha, scale of 0 to 10 where 0 is no effect and 10 is complete control
[6] = Preemergence, Rate 62 g/ha, scale 0 to 10 (0 no effect, 10 complete control)
[7] = Preemergence, Rate 250 g/ha, scale of 0 to 10 where 0 is no effect and 10 is complete control
[8] = Preemergence, Rate 500 g/ha, scale 0 to 10 (0 no effect, 10 complete control)
[9] = Rate 62 g/ha, Postemergence, scale of 0 to 10 where 0 is no effect and 10 is complete control
[10] = Rate 250 g/ha, Postemergence, scale 0 to 10, 0 is no effect, 10 is complete control
[11] = Rate 500 g/ha, Postemergence, scale 0 to 10, 0 no effect, 10 complete control
[12] = Preemergence, Rate 125 g/ha, scale 0 to 10 (0 no effect, 10 complete control)
[13] = Postemergence, Rate 1000 g/ha, scale 0 to 10 (0 no effect, 10 complete control)
[14] = Preemergence, Rate 125 g/ha, scale of 0 to 10 where 0 is no effect and 10 is complete control
[15] = Preemergence, Rate 250 g/ha, scale 0 to 10 (0 no effect, 10 complete control)
[16] = Preemergence, Rate 500 g/ha, scale of 0 to 10 where 0 is no effect and 10 is complete control
[17] = Rate 500 g/ha, Postemergence, scale 0 to 10, 0 is no effect, 10 is complete control
[18] = Rate 1000 g/ha, Preemergence, scale 0 to 10 (0 no effect, 10 complete control)

CC(C)N(C(=O)n1oc(=O)n(C(C)C)c1=O)c1ccccc1 [Compound 113]
Plant response rating, Wheat (winter) (winter wheat [1]; [3]): 40
Plant response rating, Wheat (winter) (winter wheat [1]; [4]): 50
Plant response rating, Wheat (winter) (winter wheat [1]; Rate 250 g/ha, 0 to 100 scale): 60
Plant response rating, Green foxtail (green foxtail; [3]): 55
Plant response rating, Green foxtail (green foxtail; [4]): 70
Plant response rating, Green foxtail (green foxtail; Rate 250 g/ha, 0 to 100 scale): 85
Plant response rating, I. Ryegrass (Italian ryegrass; [3]): 50
Plant response rating, I. Ryegrass (Italian ryegrass; [4]): 50
Plant response rating, I. Ryegrass (Italian ryegrass; Rate 250 g/ha, 0 to 100 scale): 100
Plant response rating, Barley (winter) (winter barley; [3]): 10
Plant response rating, Barley (winter) (winter barley; [4]): 10
Plant response rating, Barley (winter) (winter barley; Rate 250 g/ha, 0 to 100 scale): 85
Plant response rating, Blackgrass (blackgrass; [3]): 60
Plant response rating, Blackgrass (blackgrass; [4]): 30
Plant response rating, Blackgrass (blackgrass; Rate 250 g/ha, 0 to 100 scale): 85
Plant response rating, Wild oat (wild oat; [3]): 20
Plant response rating, Wild oat (wild oat; [4]): 30
Barnyardgrass plant response rating (bamyardgrass; Postemergence, Rate 62 g/ha, scale 0 to 10, 0 is no effect, 10 is complete control): 0
Barnyardgrass plant response rating (bamyardgrass; Rate 125 g/ha, Postemergence section (flood test species), scale 0 to 10, 0 no effect, 10 complete control): 0
Barnyardgrass plant response rating (bamyardgrass; Rate 250 g/ha, headed Pre-emergence (flood test species), scale 0 to 10 (0 no effect, 10 complete control)): 0
Plant response rating, Barnyardgrass (bamyardgrass; Rate 500 g/ha, headed Pre-emergence (flood test species), scale 0 to 10 (0 no effect, 10 complete control)): 0
Barnyardgrass plant response rating (bamyardgrass; Rate 500 g/ha, listed under Postemergence (flood test species), scale 0 to 10, 0 no effect, 10 complete control): 0
Barnyardgrass plant response rating (bamyardgrass; Rate 1000 g/ha, Pre-emergence (as headed), scale 0 to 10): 0
Barnyardgrass plant response rating (bamyardgrass; Rate 2000 g/ha, Pre-emergence (as headed), scale 0 to 10, 0 no effect, 10 complete control): 9
Barnyardgrass plant response rating (bamyardgrass; flood test, listed under Postemergence, Rate 250 g/ha, scale 0 to 10, 0 no effect, 10 complete control): 0
Sugarbeets plant response rating (sugar beet; [5]): 4
Sugarbeets plant response rating (sugar beet; [6]): 7
Sugarbeets plant response rating (0 to 10 scale) (sugar beet; Preemergence, Rate 125 g/ha, 0 is no effect, 10 is complete control): 8
Plant response rating, Sugarbeets (sugar beet; [7]): 9
Sugarbeets plant response rating (sugar beet; [8]): 10
Sugarbeets plant response rating (sugar beet; [9]): 4
Plant response rating, Sugarbeets (sugar beet; [10]): 5
Sugarbeets plant response rating (sugar beet; [11]): 6
Cocklebur plant response rating (cocklebur; [5]): 1
Cocklebur plant response rating (cocklebur; Postemergence, Rate 250 g/ha, scale 0 to 10, 0 no effect, 10 complete control): 1
Cocklebur plant response rating (cocklebur; [6]): 0
Plant response rating, Cocklebur (cocklebur; [12]): 1
Plant response rating, Cocklebur (cocklebur; [7]): 3
Cocklebur plant response rating (cocklebur; [8]): 3
Cocklebur plant response rating (cocklebur; [9]): 1
Cocklebur plant response rating (cocklebur; [11]): 4
Plant response rating, Wheat (winter) (winter wheat [2]; Rate 62 g/ha, 0 to 100 scale): 15
Plant response rating, Wheat (winter) (winter wheat [2]; Rate 125 g/ha, 0 to 100 scale): 30
Plant response rating, Wheat (winter) (winter wheat [2]; Rate 250 g/ha, 0 to 100 scale (0 no effect, 100 complete control)): 70
Redroot pigweed plant response rating (pigweed; [5]): 4
Redroot pigweed plant response rating (pigweed; [6]): 8
Plant response rating, Redroot pigweed (pigweed; [12]): 8
Plant response rating, Redroot pigweed (pigweed; [7]): 10
Redroot pigweed plant response rating (pigweed; [8]): 10
Redroot pigweed plant response rating (pigweed; [9]): 3
Plant response rating, Redroot pigweed (pigweed; [10]): 6
Redroot pigweed plant response rating (pigweed; [11]): 7

COP(=O)(CCn1c(=O)on(C(=O)N(c2ccc(F)cc2)C(C)C)c1=O)OC [Compound 662]
Barnyardgrass plant response rating (bamyardgrass; Pre-emergence, Rate 1000 g/ha, scale 0 to 10 (0 no effect, 10 complete control)): 0
Barnyardgrass plant response rating (0 to 10 scale, 0 is no effect, 10 is complete control) (bamyardgrass; Rate 125 g/ha, under heading Pre-emergence, flood test species, visual evaluation after twelve to sixteen days): 0
Barnyardgrass plant response rating (bamyardgrass; Rate 250 g/ha, Pre-emergence (flood test species), scale 0 to 10, 0 is no effect, 10 is complete control): 0
Barnyardgrass plant response rating (bamyardgrass; Rate 500 g/ha, Pre-emergence section of Table B, 0 to 10 scale (0 no effect, 10 complete control)): 0
Sugarbeets plant response rating (sugar beet; [5]): 0
Sugarbeets plant response rating (sugar beet; [13]): 0
Sugarbeets plant response rating (sugar beet; [14]): 0
Plant response rating, Sugarbeets (sugar beet; [15]): 0
Plant response rating, Sugarbeets (sugar beet; [16]): 0
Sugarbeets plant response rating (sugar beet; [17]): 0
Plant response rating, Sugarbeets (sugar beet; [18]): 0
Cocklebur plant response rating (cocklebur; [5]): 0
Cocklebur plant response rating (cocklebur; Postemergence, Rate 250 g/ha, scale of 0 to 10, 0 is no effect, 10 is complete control): 0
Cocklebur plant response rating (cocklebur; [13]): 5
Cocklebur plant response rating (cocklebur; [14]): 0
Plant response rating, Cocklebur (cocklebur; [15]): 0
Plant response rating, Cocklebur (cocklebur; [16]): 2
Cocklebur plant response rating (cocklebur; [17]): 0
Plant response rating, Cocklebur (cocklebur; [18]): 9
Redroot pigweed plant response rating (pigweed; [5]): 0
Redroot pigweed plant response rating (pigweed; [13]): 0
Redroot pigweed plant response rating (pigweed; [14]): 0
Plant response rating, Redroot pigweed (pigweed; [15]): 3
Plant response rating, Redroot pigweed (pigweed; [16]): 7
Redroot pigweed plant response rating (pigweed; [17]): 0
Plant response rating, Redroot pigweed (pigweed; [18]): 7
